For this test, the system named is genetisch hypertonen Ratten. Kind of test: Antihypertensive effect in the spontaneously hypertensive rat, systolic blood pressure by tail cuff after oral dosing. Type of test: in vivo, Ratte. The conditions noted are these: male SHR/N/Ibm/Bm rats, N=6, mean of day 1 and 2; for change in vivo at 25 µmol/kg / change in vivo at 10 µmol/kg: Rattus norvegicus, po; for change in vivo at 25 µmol/kg / BP (% Änderung vs. Kontrolle), Mittelwert für Meßzeitpunkte: Stunden nach Gabe (1. und 2. Tag) 2h / BP (% Änderung vs. Kontrolle), Mittelwert für Meßzeitpunkte: Stunden nach Gabe (1. und 2. Tag) 6h: 25 µmol/kg p.o. once daily on two consecutive days; for change in vivo at 10 µmol/kg: 10 µmol/kg p.o. once daily on two consecutive days. The text has this: Die antihypertensive Wirksamkeit der erfindungsgemäßen Verbindungen kann am Modell der spontan hypertonen Ratte nachgewiesen werden.
Zur Bestimmung der antihypertensiven Wirkung werden die unten aufgeführten Verbindungen in den angegebenen Dosen an zwei aufeinander folgenden Tagen an je 6 männlichen Ratten (Stamm SHR/N/Ibm/Bm, 250-350 g) mit genetisch bedingtem Hochdruck (systolischer Blutdruck > 180 mmHg) täglich einmal mittels Schlundsonde verabfolgt. Die Messung des Blutdrucks erfolgt jeweils 2, 6 und 24 Stunden nach Substanzgabe.
Die Blutdruckmessung wird in einer Wärmekammer bei 36°C vorgenommen, um eine bessere Durchblutung der Schwanzarterie zu erreichen. Hierzu werden die Tiere in perforierte Lochblechkäfige verbracht und 20 - 40 Min. nach Beginn der Aufwärmung gemessen. Zur Messung des systolischen arteriellen Drucks wird eine ringförmige Manschette mit aufblasbarer Gummimembran zur Unterbindung der Durchblutung und ein ringförmiger Piezokristallaufnehmer zur Erfassung der Pulswellen auf den Schwanz aufgeschoben. Nach erfolgter Unterbindung des Blutstroms in der Schwanzarterie wird der Manschettendruck kontinuierlich reduziert. Die Wiederkehr der Pulswellen bei Druckablassen wird automatisch als systolischer Blutdruck erkannt und ausgedruckt (Bühler, R. et al.: Microprocessor-based automation of blood pressure measurement in the conscious rat. Proceedings of the 4th international symposium on rats with spontaneous hypertension and related studies, Rascher, R. et al. (Eds.), Schattauer Verlag, Stuttgart, New York, 1982, S. 410-413). Pulssignale und Druckverlauf werden zur Auswertung graphisch aufgezeichnet.
Zur Gewöhnung an den Meßvorgang werden die Tiere vor Substanzprüfung 14 Tage trainiert. In der zweiten Trainingswoche werden Blutdruck-Vorwerte erhoben. Tiergruppen, die Substanz erhalten, werden gegen eine Kontrollgruppe geprüft. In der anschließenden Tabelle werden die untersuchten Verbindungen durch laufende Nummern gekennzeichnet, die mit den jeweiligen Beispielnummern übereinstimmen. Bei getrennten Diastereomeren ist der Drehwert des untersuchten Diastereomers angegeben.
Tabelle I gibt für die Vertreter der erfindungsgemäßen Verbindungen die prozentuale Senkung des Blutdrucks (BP) nach oraler Verabreichung bei der Ratte wieder.
%-Änderungen (BP) an genetisch hypertonen Ratten nach täglich einmaliger p.o.-Applikation an zwei aufeinanderfolgenden Tagen (N=6/Dosis).

Where [1] appears, read: 2 h, 2h after dosing, read-out: BP (% Änderung vs. Kontrolle), Mittelwert für Meßzeitpunkte: Stunden nach Gabe (1. und 2. Tag) 2h.
The mark [2] stands for this setting: 6 h, 6h after dosing, read-out: BP (% Änderung vs. Kontrolle), Mittelwert für Meßzeitpunkte: Stunden nach Gabe (1. und 2. Tag) 6h.
[3] abbreviates: 24 h, 24h after dosing, read-out: BP (% Änderung vs. Kontrolle), Mittelwert für Meßzeitpunkte: Stunden nach Gabe (1. und 2. Tag) 24h.

Where two headings read alike, the source gives them in different places.

For the molecule `CN[C@H](C)[C@@H](OC(=O)C1=C(C)NC(C)=C(C(=O)OC)C1c1cccc([N+](=O)[O-])c1)c1ccccc1` (single isomer, unassigned) [7 (-88°)], the change in vivo at 25 µmol/kg runs as follows: under setting [1], -56%; under setting [2], -46%; under setting [3], -11.5%.

Consider `CN[C@@H](C)[C@H](OC(=O)C1=C(C)NC(C)=C(C(=O)OC)C1c1cccc([N+](=O)[O-])c1)c1ccccc1` (single isomer, unassigned) [8 (+202,6°)], for which the change in vivo at 25 µmol/kg is -55% under setting [1], -43% under setting [2] and -10.5% under setting [3].

In the case of `CN[C@@H](C)[C@@H](OC(=O)C1=C(C)NC(C)=C(C(=O)OC)C1c1cccc([N+](=O)[O-])c1)c1ccccc1` (single isomer, unassigned) [9 (-66,3°)], the change in vivo at 25 µmol/kg runs as follows: under setting [1], -55%; under setting [2], -49.5%.

As to `CN[C@H](C)[C@H](OC(=O)C1=C(C)NC(C)=C(C(=O)OC)C1c1cccc([N+](=O)[O-])c1)c1ccccc1` (single isomer, unassigned) [10 (+165,5°)], the change in vivo at 25 µmol/kg is, setting by setting: under setting [1], -52%; under setting [2], -39.5%.

With `COC(=O)C1=C(C)NC(C)=C(C(=O)O[C@H](c2ccccc2)[C@H](C)N)C1c1cccc([N+](=O)[O-])c1` (single isomer, unassigned) [16 (+216,4°)], the change in vivo at 25 µmol/kg reads like this: under setting [1], -59%; under setting [2], -56.5%; under setting [3], -21.5%.

For the molecule `COC(=O)C1=C(C)NC(C)=C(C(=O)O[C@@H](c2ccccc2)[C@@H](C)N)C1c1cccc([N+](=O)[O-])c1` (single isomer, unassigned) [17 (-104,3°)], the change in vivo at 25 µmol/kg is -56% under setting [1], -47% under setting [2] and -14.5% under setting [3].

As to `CCOC(=O)C1=C(C)NC(C)=C(C(=O)O[C@H](c2ccccc2)[C@H](C)N(C)C)C1c1cccc([N+](=O)[O-])c1` (single isomer, unassigned) [Beispiel 1a], where the note is “2h after dosing”, the “BP (% Änderung vs. Kontrolle), Mittelwert für Meßzeitpunkte: Stunden nach Gabe (1. und 2. Tag) 2h” value is on record as -47,5%. In addition, the “BP (% Änderung vs. Kontrolle), Mittelwert für Meßzeitpunkte: Stunden nach Gabe (1. und 2. Tag) 6h” value (6h after dosing) is reported as -44,5%.

Turning to `CCOC(=O)C1=C(C)NC(C)=C(C(=O)O[C@H](c2ccccc2)[C@H](C)N(C)C)C1c1cccc([N+](=O)[O-])c1` (single isomer, unassigned) [Beispiel 1b], the “BP (% Änderung vs. Kontrolle), Mittelwert für Meßzeitpunkte: Stunden nach Gabe (1. und 2. Tag) 2h” value (2h after dosing) is reported as -40,0%. In addition, where the note is “6h after dosing”, the “BP (% Änderung vs. Kontrolle), Mittelwert für Meßzeitpunkte: Stunden nach Gabe (1. und 2. Tag) 6h” value is reported as -30,3%.

Take `CCOC(=O)C1=C(C)NC(C)=C(C(=O)O[C@@H](c2ccccc2)[C@@H](C)N(C)C)C1c1cccc([N+](=O)[O-])c1` (single isomer, unassigned) [Beispiel 2b]: the change in vivo at 25 µmol/kg under setting [1] was -40% and the change in vivo at 25 µmol/kg under setting [2] was -34.3%.

Take `COC(=O)C1=C(C)NC(C)=C(C(=O)O[C@H](c2ccccc2)[C@H](C)N(C)Cc2ccccc2)C1c1cccc([N+](=O)[O-])c1` (single isomer, unassigned) [Beispiel 11]: the change in vivo at 25 µmol/kg was -53.5% under setting [1] and -48% under setting [2].

Regarding `CCN(C)[C@@H](C)[C@H](OC(=O)C1=C(C)NC(C)=C(C(=O)OC)C1c1cccc([N+](=O)[O-])c1)c1ccccc1` (single isomer, unassigned) [Beispiel 12], the change in vivo at 25 µmol/kg is -48.5% under setting [1] and -38% under setting [2].

As to `COC(=O)C1=C(C)NC(C)=C(C(=O)O[C@H](c2ccccc2)[C@H](C)N(C)CC=Cc2ccccc2)C1c1cccc([N+](=O)[O-])c1` (single isomer, unassigned) [Beispiel 14], the change in vivo at 25 µmol/kg under setting [1] is -51.5% and the change in vivo at 25 µmol/kg under setting [2] is -41.5%.

Turning to `COC(=O)C1=C(C)NC(C)=C(C(=O)O[C@H](c2ccccc2)[C@@H](C)N(C)Cc2cc(OC)c(OC)c(OC)c2)C1c1cccc([N+](=O)[O-])c1` (single isomer, unassigned) [Beispiel 15], the change in vivo at 25 µmol/kg by setting is: under setting [1], -62.5%; under setting [2], -56%; under setting [3], -37%.

As for `COC(=O)C1=C(C)NC(C)=C(C(=O)O[C@H](c2ccccc2)[C@H](C)N(C)Cc2cc([N+](=O)[O-])ccc2OC)C1c1cccc([N+](=O)[O-])c1` (single isomer, unassigned) [Beispiel 19], the change in vivo at 10 µmol/kg reads like this: under setting [1], -42%; under setting [2], -23.5%; under setting [3], -10.5%.

The values above are taken from patent EP0336132A1, “1-Phenylpropyl compounds” (Byk Gulden Lomberg Chemische Fabrik GmbH, priority 1988, dated 1989).
